For orientation: IC50 means the point on the concentration scale where inhibition reaches its midpoint. A low value points to inhibition by little substance.

One assay deals with MCF-7 (breast cancer). Kind of assay: MTT cytotoxicity assay, MCF-7. It counts as cell-based. The following applies: 72 h, mean, SD in next cell. The method, then:
(§1) The human epithelial ovarian cancer A2780 cell line and its cisplatin-resistant clone A2780cis were obtained from Sigma-Aldrich (Milano, Italy). A2780cis cells were continuously exposed to 1 μM cisplatin to maintain cisplatin resistance. A549 cells (Human non-small cell lung cancer), MCF7 (metastatic breast cancer), PC3 (highly aggressive metastatic prostate cancer), and MG63 (osteosarcoma) were obtained from the American Type Culture Collection (ATCC). Cells were authenticated in laboratory using the PowerPlex 16 HS System. A2780, A2780cis, and PC3 cells were cultured in RPMI-1640 medium; MG63 and MCF7 cells were cultured in DMEM, and A549 cells were cultured in F12 NUT-MIX. The culture medium contained about 10% fetal bovine serum (FBS) (Gibco, Thermo Fisher Scientific, Monza, Italy), about 1% (v/v) of penicillin (10,000 units/mL)-streptomycin (10 mg/mL), and about 1% (v/v) L-glutamine (200 mM) (all from Sigma-Aldrich). Cells were cultured at 37° C. in a 5% CO2, fully humidified atmosphere.
(§2) 2.5×10^3 (PC3, MG63, MCF7) or 4.0×10^3 (A2780, A2780cis, A549) cells were seeded in 96-well microplates in 100 μL culture medium. Cells, allowed to adhere for 24 h, were then treated in triplicate with increasing concentrations of gold compounds. Cisplatin was included as a reference drug. Cell viability was evaluated using 3-(4,5-dimethylthiazol-2-yl)-2,5-diphenyltetrazolium bromide (MTT) assay (Sigma-Aldrich) after 72 h of treatment. Half maximal inhibitory concentrations (IC50), IC25, and IC75 were calculated using the CalcuSyn software version 2 (Biosoft, Ferguson, MO, USA) (See: Chou, T. C.; Talalay, P. Quantitative Analysis of Dose-Effect Relationships: The Combined Effects of Multiple Drugs or Enzyme Inhibitors. Adv. Enzyme Regul. 1984, 22, 27-55, which is incorporated herein by reference in its entirety). Fold resistance was calculated as the ratio of the IC50 of the A2780cis to that of the parental cell line A2780. Alternatively, cell viability was assayed by crystal violet staining (See: Feoktistova, M.; Geserick, P.; Leverkus, M. Crystal Violet Assay for Determining Viability of Cultured Cells. Cold Spring Harb Protoc 2016, 2016, pdb.prot087379, which is incorporated herein by reference in its entirety). Alternatively, after drug treatment, the culture Medium was removed, cells washed, fixed, and stained, and the Crystal Violet solution lasted 20 minutes (See: Sulaiman, A. A. A.; Casagrande, N.; Borghese, C.; Corona, G.; Isab, A. A.; Ahmad, S.; Aldinucci, D.; Altaf M. Design, Synthesis, and Preclinical Activity in Ovarian Cancer Models of New Phosphanegold(I)—N-Heterocyclic Carbene Complexes. J Med Chem 2022, 65, 14424-14440, which is incorporated herein by reference in its entirety).
(Formazan colour is commonly taken as a measure of viable cells.)

Assay [1] concerns PC3 (androgen-resistant prostate cancer). Kind of assay: MTT cytotoxicity assay, PC3. It counts as cell-based. The following applies: 72 h, mean (SD). The method, then:
as §1, §2

Assay [2] has as its system A549 cells. Kind of assay: Crystal violet staining cell viability. It counts as cell-based, human. To be noted: A549, 72 h. The method, then: as §2, with “Alternatively, after drug treatment, the culture Medium was removed, cells washed, fixed, and stained, and the Crystal Violet solution lasted 20 minutes (See: Sulaiman, A. A. A.; Casagrande, N.; Borghese, C.; Corona, G.; Isab, A. A.; Ahmad, S.; Aldinucci, D.; Altaf M. Design, Synthesis, and Preclinical Activity in Ovarian Cancer Models of New Phosphanegold(I)—N-Heterocyclic Carbene Complexes. J Med Chem 2022, 65, 14424-14440, which is incorporated herein by reference in its entirety).” left out

Assay [3] relates to A549 cells. Put plainly: Annexin-V-FITC/7AAD apoptosis, flow cytometry. It counts as cell-based, human. The following applies: A549, 72 h, 0.06-0.60 μM. How it is done: (§3) 2.0×10^5 A549 cells were seeded in 6-well plates in a complete medium and treated with the complex 3. Assay results were detected by flow cytometry on a BD FACSCanto II flow cytometer. Data were analyzed using BD FACSDiva v.8.0.1 software (BD Biosciences) unless otherwise indicated. Tumor cells were treated for 72 h with complex 3, then stained for 15 minutes with FITC Annexin-V (Thermo Fisher Scientific) and 7AAD (BD Pharmingen, Milan, Italy). Activated caspase-3,7 was detected using the CaspaTag Caspase-3,7 assay (Merck Millipore) after an incubation of 24 h with complex 3. For B-cell lymphoma/leukemia-2 protein (Bcl-2) and Bcl-2 associated x protein (Bax) analysis, cells were treated for 72 h with C3, then fixed and permeabilized (FIX & PERM Cell Fixation & Cell Permeabilization Kit, Life Technologies). […] The distribution of cells in different cell cycle phases was quantified using ModFit LT 4.0 software (Verity Software House, Topsham, ME, USA) (See: Sulaiman, A. A. A.; Casagrande, N.; Borghese, C.; Corona, G.; Isab, A. A.; Ahmad, S.; Aldinucci, D.; Altaf M. Design, Synthesis, and Preclinical Activity in Ovarian Cancer Models of New Phosphanegold(I)—N-Heterocyclic Carbene Complexes. J Med Chem 2022, 65, 14424-14440, which is incorporated herein by reference in its entirety). […]
(A flow cytometer gives signals particle by particle.)

A further assay concerns A549 (lung cancer cells). Put plainly: MTT cytotoxicity assay, A549. The following applies: 72 h. It counts as cell-based, human. The method, then:
as §1, §2

Another assay deals with ALDH1. Kind of assay: ALDH1 enzymatic activity (Aldeflour), flow cytometry. It counts as cell-based, human. The following applies: A549, 24 h. The method, then:
as §3

Regarding `CC(C)c1cccc(C(C)C)c1-n1ccn(-c2c(C(C)C)cccc2C(C)C)[c]1=[Au-][P+](CCNCC[P+]([Au-]=[c]1n(-c2c(C(C)C)cccc2C(C)C)ccn1-c1c(C(C)C)cccc1C(C)C)(C1CCCCC1)C1CCCCC1)(C1CCCCC1)C1CCCCC1` [Complex 3, [(Au(IPr))2(C28H24P2)](PF6)2], half-maximal inhibition with MCF-7 (breast cancer) (IC50) was put at 430 nM. The molecule also came in with an IC50 in assay [1] of 240 nM. For the same molecule, in the assay with A549 cells [2], the “growth inhibition by crystal violet staining” value is “growth inhibition”. In the assay with A549 cells [3], the “percentage of Annexin-V-positive cells (early apoptosis)” value was “increased in a dose-dependent manner” and the “percentage of double stained Annexin-V/7AAD-positive cells (late apoptosis)” value is on record as “increased in a dose-dependent manner”. For the same molecule, in the assay on A549 (lung cancer cells), the “IC25 A549” value was determined as 60 nM and the “IC75 A549” value came to 600 nM. Moreover, the IC50 in the assay on A549 (lung cancer cells) (mean (SD)) was found to be 130 nM. Besides, the ALDH1 enzymatic activity result with ALDH1 is reported as “reduced”.

For the origin of these results see US20250222009A1, “DINUCLEAR GOLD(I) COMPLEXES FOR TREATING CANCER” (KING FAHD UNIVERSITY OF PETROLEUM AND MINERALS, priority 2024, published 2025).
